# Entries after “also recorded” stand apart in the source; their conditions may differ.
# Tests used:
# [1] = test system: P. aeruginosa PAO1 wild-type biofilm; assay: Biofilm cell cluster average thickness, wild type; type: cell-based, Pseudomonas aeruginosa; details: 10 uM in growing PAO1 biofilm, 10 days incubation
# Description: (§1) 1. Biofilm average cell cluster depth: This parameter is a measure of the average thickness in microns of cell clusters in a biofilm. Depth measurements are performed microscopically, by measuring the maximum distance from the substratum to the apex of a biofilm cell cluster at the bulk water interface in a steady state biofilm for a minimum of 20 cell clusters. Previous measurements have shown that with P. aeruginosa, the average cell cluster depth is 102.3 um with a standard error of the mean of 20.5 um. When the gene responsible for the production of the homoserine lactone OdDHL is knocked out, the average cell cluster depth drops to only 22.8 um with a standard error of the mean of 10.0.
# Continuous culture studies. […]
# (§2) Log phase P. aeruginosa were inoculated through a septum approximately 1 cm upstream from the flow cell while flow was maintained. […] Flow through the system was then increased to remove any bacteria attached to the inside surface of the coverslip (as determined by microscopy). […]
# An analog of OdDHL, N-(2,2-difluorodecanoyl)-L-homoserine lactone was dissolved in 25% ethanol, 75% water by volume and added at a final concentration of 10 uM to growing biofilm cultures of P. aeruginosa PAO1 wild-type. Following 10 days incubation, the biofilm was analyzed for cell to cell distances, cell cluster thickness and response to treatment with 0.2% SDS. […]
# [2] = test system: P. aeruginosa PAO1 wild-type biofilm; assay: Average cell to cell distance in biofilm, wild type; type: cell-based, Pseudomonas aeruginosa; details: 10 uM in growing PAO1 biofilm, 10 days incubation
# Description: (§3) 2. Biofilm cell nearest neighbor analysis: This parameter is a measure of the average distance spacing between cells within a biofilm cell cluster or between cells at a substratum. Both measurements are influenced by the presence of the homoserine lactone OdDHL. The nearest neighbor analysis is performed by imaging 20 or more fields in a biofilm reactor and electronically determining the centroid of each cell. The relative distances from a marker cell to all other cells is computed and iterated for each cell in the population. The average nearest neighbor is then calculated. […] When OdDHL is added to the nutrient feed of the mutant defective in the production of that HSL, the average nearest neighbor increases to just over 9 um in distance.
# An analog of OdDHL, N-(2,2-difluorodecanoyl)-L-homoserine lactone was dissolved in 25% ethanol, 75% water by volume and added at a final concentration of 10 uM to growing biofilm cultures of P. aeruginosa PAO1 wild-type. Following 10 days incubation, the biofilm was analyzed for cell to cell distances, cell cluster thickness and response to treatment with 0.2% SDS. […] Finally, when treated with 0.2% SDS by weight, the treated biofilm was disrupted and dispersed within 30 minutes (FIGS. 5a to 5f).
# [3] = test system: P. aeruginosa PAO1 biofilm cell clusters; assay: Effect of detergent (0.2% SDS) on biofilm dispersion, wild type; type: cell-based, Pseudomonas aeruginosa
# Description: SDS on wild-type P. aeruginosa PAO1. The bacteria were grown in EPRI medium in continuous culture for 10 days (a,d). Following the incubation period, 0.2% SDS was added to the reactor and flow was halted for 30 minutes (b,e). Following incubation with SDS, flow was reinitiated (c,f).
# (§4) 3. […] It has been shown previously (Davies, Doctoral Thesis, Montana State University, 1996) that matrix polymer, specifically alginate, prevents the dissolution of P.aeruginosa cell clusters treated with 0.2% SDS. However, when cell clusters are formed in the absence of alginate they are completely disrupted in under 30 minutes (FIGS. 2a, 2b, 2c and 2d). By microscopic examination of cell cluster thickness before and after treatment with SDS or by capturing effluent samples following similar treatment, a quantitative evaluation of the effect of agents capable of blocking the production of detergent resistant matrix material can be made.
# (§5) In the present experiment, treatment with the detergent was shown not to affect the biofilm in the absence of released alginate lyase.
# Following 10 days incubation, the biofilm was analyzed for cell to cell distances, cell cluster thickness and response to treatment with 0.2% SDS. […] Finally, when treated with 0.2% SDS by weight, the treated biofilm was disrupted and dispersed within 30 minutes (FIGS. 5a to 5f).
# [4] = test system: algD promoter; assay: Alginate promoter reporter activity (beta-galactosidase), algD; type: cell-based, P. aeruginosa strain 8830; details: batch culture 48 hours, 10 uM OdDHL or 20 uM BHL
# Description: (§6) FIGS. 3a and 3b are alginate promoter studies which show the activity of the alginate promoters algC, and algD. Cultures of P. aeruginosa strain 8830 were grown for 48 hours in batch culture flasks containing EPRI medium. Test flasks were amended by either 10 uM OdDHL (PAI), 20 uM BHL (butyryl-L-homoserine lactone) or both (PAI+BHL). Following incubation, cells were harvested and promoter activity was measured as specific activity of the beta-galactosidase reporter enzyme as normalized to cell protein.
# (§7) 4. […] Alginate is a common matrix material in biofilms, and is not exclusive to P. aeruginosa. The sensitivity of P. aeruginosa to HSL activity provides a rapid assay for HSLs that is sensitive and quantitative. The responsiveness of the specific biofilm genes algC and algD to HSL activity allows assays to be performed in liquid or on semi solid medium. This provides the opportunity to perform rapid screening of test molecules for their effect on alginate production.
# [5] = test system: algC promoter; assay: Alginate promoter reporter activity (beta-galactosidase), algC; type: cell-based, P. aeruginosa strain 8830; details: batch culture 48 hours, 10 uM OdDHL or 20 uM BHL
# Description: as §6, §7
# [6] = test system: P. aeruginosa PDO100 biofilm; assay: Biofilm dispersion by BHL in rhlI knockout; type: cell-based, Pseudomonas aeruginosa
# Description: This hypothesis was investigated by growing biofilms of P. aeruginosa PDOlOO and adding BHL to the influent medium at a concentration of 20 μM after 7 days growth. […] When P. aeruginosa PDOIOO was grown in the absence of BHL, medium flow was turned off after 7 days. Following cessation of flow, no dispersion of cell clusters was observed over the duration of the observation period of 96 hours.
# [7] = test system: P. aeruginosa PAO-JP1 biofilm cell clusters; assay: Effect of detergent (0.2% SDS) on biofilm dispersion, lasI knockout; type: cell-based, Pseudomonas aeruginosa
# Description: FIGS. 2a, 2b, 2c, and 2d are cell cluster studies which show the effect of the addition of 0.2% SDS to a biofilm cell cluster of the lasI knockout strain P. aerguginosa PAO-JP1. The strain was grown in EPRI medium for 10 days in continuous culture reactor under flowing conditions (a). SDS was added to the culture reactor and flow was turned off for 30 min (b,c). Following incubation in the presence of SDS, flow was reinitiated (d);
# as §4, §5
# [8] = test system: P. aeruginosa PAO-JP1 biofilm; assay: Biofilm average cell cluster depth, OdDHL knockout; type: cell-based, Pseudomonas aeruginosa; details: OdDHL added back to nutrient feed of OdDHL knockout; standard error 25.2
# Description: as §1
# Continuous culture studies. A continuous culture apparatus was developed to observe the growth and development of biofilms attached to a glass substratum. The apparatus was configured as a once through flow cell system. The influent defined culture medium was retained in a four liter glass reservoir. […]
# as §2
# [9] = test system: P. aeruginosa PAO-JP2 biofilm; assay: Biofilm architecture recovery in double mutant (microscopy); type: cell-based, Pseudomonas aeruginosa; details: double mutant cultured with 10 μM OdDHL in fresh medium
# Description: The most unequivocal experimental design, to determine the role of HSL signal molecules on the formation of biofilms by cells of P. aeruginosa, was to use direct microscopic methods to monitor biofilm formation by cells of HSL negative mutants. For this reason planktonic cells of a wild-type strain (PAO1), and of three mutants incapable of synthesizing specific HSLs, were introduced into flow cells, and adhesion and biofilm formation were monitored by means of confocal scanning laser microscopy (CSLM). Using these techniques, it is possible to monitor the development of live biofilms of the strains of interest.
# Continuous culture studies. A continuous culture apparatus was developed to observe the growth and development of biofilms attached to a glass substratum. The apparatus was configured as a once through flow cell system. The influent defined culture medium was retained in a four liter glass reservoir. Medium from the influent reservoir was pumped through silicone tubing via a Masterflex pump to an aeration flask sparged with a filtered air source. […]
# as §2
# [10] = test system: P. aeruginosa JP1 biofilm; assay: Biofilm cell nearest neighbor analysis, OdDHL knockout; type: cell-based, Pseudomonas aeruginosa; details: OdDHL (10 uM) added to nutrient feed of OdDHL-defective mutant, at the substratum
# Description: as §3
# [11] = test system: P. aeruginosa PAO-JP2 biofilm cell clusters; assay: Effect of detergent (0.2% SDS) on biofilm dispersion, double mutant; type: cell-based, Pseudomonas aeruginosa
# Description: as §5
compound,measurement,setting,value
"CCCCCCCCC(F)(F)C(=O)N[C@H]1CCOC1=O [N-(2,2-difluorodecanoyl)-L-homoserine lactone]",cell cluster average thickness,[1],under 20 um
same,average cell to cell distance,[2],less than 4 um
same,time to disruption and dispersion on treatment with 0.2% SDS,[3]; PAO1 biofilm grown 10 days with 10 uM blocking agent,≤ 30 min
same,cell cluster dispersion after 0.2% SDS and reinitiation of flow,"[3]; PAO1 cultured 10 days in presence of 20 uM OdDHL analog, SDS 30 minutes without flow",disperses completely
"CCCC(=O)N[C@H]1CCOC1=O [BHL, N-butyryl-L-homoserine lactone]",algD promoter response,[4],sensitive
same,algC promoter response,[5],sensitive
same,effect on biofilm with medium flow on,"[6]; 20 μM BHL in influent medium after 7 days growth, 24 hours",no observable effect
same,detachment after medium flow shut off,"[6]; 20 μM BHL, flow off for 16 hours, detachment continued for three hours",significant detachment
"CCCCCCCCCC(=O)CC(=O)N[C@H]1CCOC1=O [OdDHL, N-(3-oxododecanoyl)-L-homoserine lactone]",algD promoter response,[4],sensitive
same,algC promoter response,[5],sensitive
same,dispersion of cell clusters by 0.2% SDS,[7]; PAO-JP1 grown in the presence of 10 μM OdDHL,did not disperse bacteria in the cell clusters
same,average cell cluster thickness,[8],100.1 um
same,biofilm architecture phenotype,[9],recovery of the intermediary phenotype
same,average nearest neighbor distance,[10],over 9 um
"CCCCCCCCCCCCOS(=O)(=O)[O-].[Na+] [SDS, sodium dodecyl sulfate]",dispersion of cell clusters by SDS,"[7]; 0.2% SDS, PAO-JP1 without added HSL",disperse completely
same,time to complete disruption of cell clusters by SDS,"[7]; 0.2% SDS, cell clusters formed in the absence of alginate (FIGS. 2a-2d)",under 30 minutes
same,effect of SDS on cell cluster integrity/dispersion,"[3]; 0.2% SDS, untreated wild-type PAO1, sulfate",no effect; also recorded: no dispersion or release of bacteria
same,dispersion of cell clusters by SDS,[11],disperse completely
